Data published in PMC6017844, “4-Thiazolidinone Derivatives as MMP Inhibitors in Tissue Damage: Synthesis, Biological Evaluation and Docking Studies” (Molecules : A Journal of Synthetic Chemistry and Natural …, 2018).
Where two headings read alike, the source gives them in different places.

Assays:
[1] = tested on: NF-κB; test: NF-κB levels by Western blot analysis; assay type: cell-based, human; settings: NCTC 2544 stimulated with IFN-γ and histamine, 10 µM, 48 h, in words
Description: The treatment of keratinocyte cell line NCTC 2544 with 200 U/mL of IFN-γ and 10^−4 M of H increased NF-κB levels compared to untreated cells. IFN-γ is an essential cytokine in amplifying inflammatory reactions, as it stimulates the synthesis of chemokines that attract inflammatory cells and induces expression of molecules important for the retention and activation of T cells. We employed both IFN-γ and histamine because they use distinct signal transduction pathways, and this can lead to a stronger activation of inflammatory genes. […] Stimulated keratinocytes were treated with compounds 22 and 23 and the levels of NF-κB were measured after 48 h. […]
The normal human keratinocyte cell line NCTC 2544 was provided by Interlab Cell Line Collection Genoa (Genova, Italy) and cultured in Minimum Essential Medium (MEM) (Sigma-Aldrich, Milan, Italy) containing 10% fetal calf serum, 100 U/mL penicillin and 100 μg/mL streptomycin at 37 °C in a humidified, 95% air/5% CO2 atmosphere. […] A day before the experiment, cells were trypsinized, counted, and plated either in 96 wells or in 6 well plates. […]
The expression of nuclear factor kappa-light-chain-enhancer of activated B cells (NF-κB) was evaluated by Western blot analysis. […] Bands were measured densitometrically and their relative density was calculated based on the density of the […] in each sample. […]

[2] = Oxygen Radical Absorbance Capacity (ORAC) assay; settings: for ORAC UNITs: fluorescein 10 nM, AAPH 100 mM, 37 °C, pH 7.0, mean ± SD (n = 3), Trolox = 1 ORAC Units
Description: Free radicals and ROS are highly reactive molecules that are generated by normal cellular processes. They react with cellular components, damaging DNA, carbohydrates, proteins, and lipids causing cellular and tissue injury. Although organisms have developed complex antioxidant systems to protect themselves from oxidative substances, an excess of ROS production can lead to inflammation and several disease state. ORAC test measures both lipophilic and hydrophilic antioxidant capacity and determines the ability of antioxidants to protect proteins from damage caused by free radicals. ORAC assay has been widely accepted as a standard in vitro to measure the antioxidant activity of synthetic compounds, measuring their capacity to transfer hydrogen atom. The assay measures the loss of fluorescence over time due to peroxyl-radical formation by the breakdown of 2,2′-azobis-2-methyl-propanimidamide dihydrochloride (AAPH). 6-Hydroxy-2,5,7,8-tetramethylchroman-2-carboxylic acid (Trolox), a water soluble vitamin E analog, is a positive control that inhibits the fluorescein decay in a dose dependent manner. The ORAC assay is a kinetic assay measuring fluorescein decay and antioxidant protection over time.
The ORAC assay was performed as previously reported by Cao et al.. The measurements were carried out on a Wallac 1420 Victor^3 96-well plate reader (EG & Wallac, Turku, Finland) with fluorescence filter ([…]). Fluorescein (10 nM) was the fluorescence probe and target molecule for free radical attack from AAPH (100 mM) as peroxyl radical generator. The reaction was conducted at 37 °C at pH 7.0 with Trolox (12.5 μM) as control standard and phosphate buffer as blank. Compounds 13–19 and 22–23 were appropriately diluted with DMSO/buffer (1:10) prior to analysis. The fluorescein fluorescence was recorded every 2 min after addition of AAPH. All measurements were expressed relative to the initial reading. One blank, one standard, and a maximum of 10 samples were analyzed at the same time. Each measure was repeated at least three times. The ORAC value refers to the net protection area under the quenching curve of fluorescein in the presence of an antioxidant. The final results (ORAC value) were calculated and expressed using Trolox equivalents (TE) per gram of extract (TE/g):ORAC value (μM) = K(S sample − S blank)/(S Trolox − S blank)(1) where K is a sample dilution factor, S is the area under the fluorescence decay curve of the sample, Trolox or blank. This area was calculated with Origin®7 (OriginLab Corporation, Northampton, MA, USA).

[3] = target: T1, human recombinant MMP-9 (Homo sapiens, UniProt P14780); test: MMP-9 fluorimetric assay; assay type: biochemical
T1 construct: using 10 nM of proteolytic enzyme (catalytic domains of MMP-9 (Biomol, Inc.)); purchased Biomol, Inc
T1 sequence (P14780 107-444 limits assumed): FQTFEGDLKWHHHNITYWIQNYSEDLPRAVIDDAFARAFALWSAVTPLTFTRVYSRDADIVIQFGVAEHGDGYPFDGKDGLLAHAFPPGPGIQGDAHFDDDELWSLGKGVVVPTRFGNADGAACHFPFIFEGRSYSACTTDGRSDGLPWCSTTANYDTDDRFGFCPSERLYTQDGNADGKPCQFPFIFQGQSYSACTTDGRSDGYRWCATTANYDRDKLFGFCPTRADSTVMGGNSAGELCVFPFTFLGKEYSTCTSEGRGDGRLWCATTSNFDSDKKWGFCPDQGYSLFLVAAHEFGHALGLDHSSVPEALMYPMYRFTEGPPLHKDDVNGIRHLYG
Experimental: The synthesized compounds 13–19, 22 and 23 were tested for their in vitro ability to inhibit human recombinant MMP-9. Table 2 reports the results of this inhibition assay, expressed as IC50 (µM). […] We used as positive control a potent MMPs inhibitor, NNGH (N-isobutyl-N-(4-methoxy-phenylsulfonyl)glycylhydroxamic acid).
The compounds were evaluated for their ability to inhibit the hydrolysis of fluorescence-quenched peptide substrate Mca-Pro-Leu-Gly-Leu-Dpa-Ala-Arg-NH2 (Biomol, Inc., Enzo Life Sciences, Inc., Farmingdale, NY, USA). The MMP-9 assays were performed in 50 mM HEPES buffer containing 5 mM CaCl2, 0.1 mM ZnCl2, 0.05% Brij-35, at pH 7, using 10 nM of proteolytic enzyme (catalytic domains of MMP-9 (Biomol, Inc.) and 350 nM of peptide substrate. The enzyme was incubated at 25 °C with increasing concentration (0.0004, 0.004, 0.04, 0.4, 4, 40, 400 µM) of compounds, and the fluorescence (excitation max 328 nm; emission max 393 nm) was measured for 3 min after the addition of the substrate using a Victor Wallac 1420 Multilabel Counters fluorimeter (Perkin Elmer, Waltham, MA, USA). The fluorescence values of the samples were plotted against the time with a linear regression fit, using the Origin software, version 7 (Origin Lab Corporation, Northampton, MA, USA). The slope of the line value for each inhibitor concentrations was obtained where an increase of the slope corresponds to a decrease of inhibitory activity. Subsequently, the IC50 values were obtained from a non-linear regression procedure (log inhibitor vs. response) with a variables slope of the regression line (Y) and the molar inhibitor concentration (X), using the software Origin®7 (Origin Lab Corporation). The IC50 value was obtained from the equation Y = P1/(1 + X/P2). NNGH (N-Isobutyl-N-(4-methoxyphenylsulfonyl)glycylhydroxamic acid) a potent MMPs inhibitor was used as a positive control.

| SMILES | melting point [°C] | effect on NF-κB release [1] | antioxidant activity in words ([2]; delay of fluorescence reduction of fluorescein-AAPH solution) | ORAC UNITs [2] | IC50 ([3]; catalytic domain of MMP-9 10 nM, substrate 350 nM, 25 °C, pH 7, mean ± SD (n = 3), n.a. = not active, read-out: IC50 Value) [nM] | ORAC value [2] [TE/µmol] | IC50 ([3]; read-out: IC50 (MMP-9)) [nM] |
| --- | --- | --- | --- | --- | --- | --- | --- |
| CC(C(=O)NN1C(=O)CSC1c1ccc(O)cc1)c1nsc2ccccc12 (stereo not shown) [Compound 22, 2-(1,2-Benzothiazol-3-yl)-N-[2-(4-hydroxyphenyl)-4-oxo-1,3-thiazolidin-3-yl]propanamide] | 257 to 259 | reduced NF-κB release | excellent antioxidant effectiveness | 1.24 ± 0.09 ORAC unit (μmol of Trolox equi | 300 ± 50 | – | – |
| CC(C(=O)NN1C(=O)CSC1c1ccc(C(=O)O)cc1)c1nsc2ccccc12 (stereo not shown) [Compound 23, 4-(3-{[2-(1,2-Benzothiazol-3-yl)propanoyl]amino}-4-oxo-1,3-thiazolidin-2-yl)benzoic acid] | 137 to 140 | reduced NF-κB release | – | 0.53 ± 0.17 ORAC unit (μmol of Trolox equi | – | 0.53 | 40 |
